The target in this assay is T1, IRP2 (Homo sapiens, UniProt P48200).
T1 construct: gene IREB2; isolated IRP2 immobilised on CM5 chip
T1 sequence (P48200 1-963): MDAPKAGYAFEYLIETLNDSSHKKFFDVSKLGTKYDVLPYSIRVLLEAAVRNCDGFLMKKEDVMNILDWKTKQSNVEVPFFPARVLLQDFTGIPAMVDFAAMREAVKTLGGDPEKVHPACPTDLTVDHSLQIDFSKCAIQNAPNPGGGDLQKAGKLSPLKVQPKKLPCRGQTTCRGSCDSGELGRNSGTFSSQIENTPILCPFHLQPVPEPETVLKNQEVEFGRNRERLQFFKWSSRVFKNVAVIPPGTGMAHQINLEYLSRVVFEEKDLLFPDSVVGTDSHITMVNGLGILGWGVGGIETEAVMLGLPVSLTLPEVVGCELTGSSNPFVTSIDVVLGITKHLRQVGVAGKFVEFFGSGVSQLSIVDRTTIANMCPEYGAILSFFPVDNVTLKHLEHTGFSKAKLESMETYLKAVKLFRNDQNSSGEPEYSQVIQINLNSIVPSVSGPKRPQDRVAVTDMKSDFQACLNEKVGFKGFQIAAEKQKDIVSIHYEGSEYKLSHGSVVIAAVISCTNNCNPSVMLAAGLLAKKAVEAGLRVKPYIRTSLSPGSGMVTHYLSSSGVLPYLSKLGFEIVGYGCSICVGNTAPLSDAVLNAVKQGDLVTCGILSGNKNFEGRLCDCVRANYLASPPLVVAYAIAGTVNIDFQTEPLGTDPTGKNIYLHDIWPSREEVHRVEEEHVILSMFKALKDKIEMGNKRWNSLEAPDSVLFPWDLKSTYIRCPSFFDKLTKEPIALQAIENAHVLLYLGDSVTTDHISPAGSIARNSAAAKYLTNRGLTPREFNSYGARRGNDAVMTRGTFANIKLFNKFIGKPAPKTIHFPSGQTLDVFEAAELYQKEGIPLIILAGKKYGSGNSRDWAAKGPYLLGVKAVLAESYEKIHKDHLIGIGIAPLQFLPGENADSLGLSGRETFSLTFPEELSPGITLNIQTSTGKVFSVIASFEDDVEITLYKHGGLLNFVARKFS
Nature of the assay: SPR (Biacore T200, CM5 chip, multi-cycle kinetics, […] fit). The class given is binding.

As to `COc1ccc(S(=O)(=O)Nc2cccc(C)c2)cc1-c1cnc2[nH]ncc2c1` [KS-20073], the Kd amounted to 45.9 µM.
The molecule `COc1ccc(S(=O)(=O)Nc2cccc(F)c2)cc1-c1cnc2[nH]nc(NC(C)=O)c2c1` [KS-20226] displayed a Kd of 4.1 µM.

By Kd is commonly meant a measure of binding affinity in units of concentration. High values mean a looser complex, low ones a tighter complex.

The values above are taken from paper PMC11342626, “Inhibition of IRP2-dependent reprogramming of iron metabolism suppresses tumor growth in colorectal cancer” (Cell Communication and Signaling : CCS, 2024).
